The record followed here is ChEMBL document CHEMBL4610102, “Betulinic Acid Inhibits RANKL-Induced Osteoclastogenesis via Attenuating Akt, NF-κB, and PLCγ2-Ca2+ Signaling and Prevents Inflammatory Bone Loss” (J Nat Prod, 2020).

Active and inactive are the calls of the source. The rule behind the calls is not given here.

Data set [1] addresses RAC-alpha serine/threonine-protein kinase (Mus musculus) (UniProt P31750). Description: Inhibition of AKT phosphorylation in RANKL-induced ICR mouse bone marrow macrophages at 1 uM preincubated for 1 hr followed by RANKL-stimulation and measured after 5 to 30 mins by Western blot analysis.
Data set [2] relates to BMDM. Kind of data set: Anti-osteoporosis activity in ICR mouse bone marrow macrophages assessed as inhibition of RANKL-induced NFATc1 protein expression at 0.1 to 1 uM after 24 hrs by Western blot analysis. The format is functional, cell-based.
Data set [3] deals with BMDM. Kind of data set: Inhibition of RANKL-induced osteoclastogenesis in ICR mouse bone marrow macrophages assessed as reduction in TRAP-positive multinucleated osteoclasts at 0.1 to 1 uM after 3 days by TRAP staining based assay. Type of data set: functional, cell-based.
In data set [4] the test system is BMDM. Kind of data set: Anti-osteoporosis activity in ICR mouse bone marrow macrophages assessed as inhibition of RANKL-induced c-Fos protein expression at 0.1 to 1 uM after 24 hrs by Western blot analysis. Type of data set: functional, cell-based.
The test system of data set [5] is Mus musculus. Description: Anti-resorptive activity in ICR mouse model of LPS-Induced bone loss assessed as increase in trabecular bone in femurs at 10 mg/kg, po for 8 days by H and E staining based light microscopic analysis. Type of data set: functional, organism-based.
The subject of data set [6] is BMDM. Kind of data set: Anti-osteoporosis activity in ICR mouse bone marrow macrophages assessed as inhibition of RANKL-induced DC-STAMP mRNA expression at 10 uM after 12 to 48 hrs by RT-PCR analysis. The format is functional.
Data set [7] deals with BMDM. Kind of data set: Anti-osteoporosis activity in ICR mouse bone marrow macrophages assessed as inhibition of RANKL-induced OSCAR mRNA expression at 10 uM after 12 to 48 hrs by RT-PCR analysis. Type of data set: functional.
In data set [8] the test system is Osteoclast. Kind of data set: Inhibition of bone-resorbing in ICR mouse osteoclasts assessed as downregulation of Ctsk-mRNA expression at 10 uM after 12 to 48 hrs by RT-PCR analysis. The format is functional, cell-based.
Data set [9] deals with Mus musculus. Kind of data set: Anti-resorptive activity in ICR mouse model of LPS-Induced bone loss assessed as inhibition of TRAP-positive multinucleated osteoclasts formation in femurs at 10 mg/kg, po for 8 days by TRAP staining based light microscopic analysis. Type of data set: functional, organism-based.
The subject of data set [10] is BMDM. Description: Anti-osteoporosis activity in ICR mouse bone marrow macrophages assessed as inhibition of RANKL-induced ATP6v0d2 mRNA expression at 10 uM after 12 to 48 hrs by RT-PCR analysis. The format is functional.
Data set [11] concerns Osteoclast. Kind of data set: Inhibition of bone-resorbing in ICR mouse osteoclasts assessed as reduction in resorption at 10 uM after 24 hrs by pit formation assay. The format is functional, cell-based.
Data set [12] deals with BMDM. Kind of data set: Inhibition of RANKL-induced osteoclastogenesis in ICR mouse bone marrow macrophages assessed as reduction in TRAP-positive multinucleated osteoclasts after 4 days by TRAP staining based assay. Type of data set: functional, cell-based.
For data set [13], the system named is BMDM. Kind of data set: Anti-osteoporosis activity in ICR mouse bone marrow macrophages assessed as inhibition of RANKL-induced NFATc1 protein expression at 10 uM after 12 to 48 hrs by Western blot analysis. The format is functional, cell-based.
The test system of data set [14] is Mus musculus. Description: Anti-resorptive activity in ICR mouse model of LPS-Induced bone loss assessed as increase in bone volume per tissue volume in proximal femurs at 10 mg/kg, po for 8 days by micro-CT analysis. The format is functional, organism-based.
The target of data set [15] is RAC-alpha serine/threonine-protein kinase (Mus musculus) (UniProt P31750). Description: Inhibition of AKT phosphorylation in RANKL-induced ICR mouse bone marrow macrophages at 10 uM preincubated for 1 hr followed by RANKL-stimulation and measured after 5 to 30 mins by Western blot analysis.
For data set [16], the system named is BMDM. Kind of data set: Anti-osteoporosis activity in ICR mouse bone marrow macrophages assessed as inhibition of RANKL-induced c-Fos mRNA expression at 10 uM after 12 to 48 hrs by RT-PCR analysis. The format is functional, cell-based.
Data set [17] deals with BMDM. Kind of data set: Cytotoxicity against ICR mouse bone marrow macrophages assessed as reduction in cell viability up to 10 uM after 3 days by XTT assay. Type of data set: cell-based. Particulars: 72 h.
Data set [18] deals with BMDM. Kind of data set: Anti-osteoporosis activity in ICR mouse bone marrow macrophages assessed as inhibition of RANKL-induced c-Fos protein expression at 10 uM after 12 to 48 hrs by Western blot analysis. The format is functional, cell-based.
The test system of data set [19] is Mus musculus. Kind of data set: Anti-resorptive activity in ICR mouse model of LPS-Induced bone loss assessed as reduction in trabecular separation in proximal femurs at 10 mg/kg, po for 8 days by micro-CT analysis. Type of data set: functional, organism-based.
Data set [20] has as its system BMDM. Kind of data set: Inhibition of RANKL-induced osteoclastogenesis in ICR mouse bone marrow macrophages harboring constitutively active IKKbeta assessed as reduction in TRAP-positive multinucleated osteoclasts at 10 uM after 3 days by TRAP staining based assay. The format is functional, cell-based.
Another data set relates to HEK-293T. Description: Trans-suppression of NFkappaB (unknown origin) in HEK293T cells cotransfected with betagalactosidase at 10 uM incubated for 12 hrs followed by RANKL-stimulation by luciferase reporter gene assay. Type of data set: cell-based. Particulars: Homo sapiens.
For data set [21], the system named is BMDM. Kind of data set: Inhibition of RANKL-induced osteoclastogenesis in ICR mouse bone marrow harboring constitutively active AKT macrophages assessed as reduction in TRAP-positive multinucleated osteoclasts at 10 uM after 3 days by TRAP staining based assay. Type of data set: functional, cell-based.
Data set [22] relates to BMDM. Description: Anti-osteoporosis activity in ICR mouse bone marrow macrophages assessed as inhibition of RANKL-induced MMP9 mRNA expression at 10 uM after 12 to 48 hrs by RT-PCR analysis. The format is functional.
Data set [23] deals with I-kappa-B kinase (Mus musculus) (UniProt Q60680+O88351+O88522). Description: Inhibition of IKappaB phosphorylation in RANKL-induced ICR mouse bone marrow macrophages at 10 uM preincubated for 1 hr followed by RANKL-stimulation and measured after 5 to 30 mins by Western blot analysis. The format is protein-complex assay.
Data set [24] deals with Mus musculus. Description: Anti-resorptive activity in ICR mouse model of LPS-Induced bone loss assessed as reduction in bone loss in proximal femurs at 10 mg/kg, po for 8 days by micro-CT analysis. The format is functional, organism-based.
Data set [25] has as its system Mus musculus. Kind of data set: Anti-resorptive activity in ICR mouse model of LPS-Induced bone loss assessed as increase in trabecular number in proximal femurs at 10 mg/kg, po for 8 days by micro-CT analysis. Type of data set: functional, organism-based.
Data set [26] deals with BMDM. Kind of data set: Anti-osteoporosis activity in ICR mouse bone marrow macrophages assessed as inhibition of RANKL-induced beta3-integrin mRNA expression at 10 uM after 12 to 48 hrs by RT-PCR analysis. The format is functional.
Data set [27] addresses T1, 1-phosphatidylinositol 4,5-bisphosphate phosphodiesterase gamma-2 (Mus musculus) (UniProt Q8CIH5).
T1 sequence (whole entry): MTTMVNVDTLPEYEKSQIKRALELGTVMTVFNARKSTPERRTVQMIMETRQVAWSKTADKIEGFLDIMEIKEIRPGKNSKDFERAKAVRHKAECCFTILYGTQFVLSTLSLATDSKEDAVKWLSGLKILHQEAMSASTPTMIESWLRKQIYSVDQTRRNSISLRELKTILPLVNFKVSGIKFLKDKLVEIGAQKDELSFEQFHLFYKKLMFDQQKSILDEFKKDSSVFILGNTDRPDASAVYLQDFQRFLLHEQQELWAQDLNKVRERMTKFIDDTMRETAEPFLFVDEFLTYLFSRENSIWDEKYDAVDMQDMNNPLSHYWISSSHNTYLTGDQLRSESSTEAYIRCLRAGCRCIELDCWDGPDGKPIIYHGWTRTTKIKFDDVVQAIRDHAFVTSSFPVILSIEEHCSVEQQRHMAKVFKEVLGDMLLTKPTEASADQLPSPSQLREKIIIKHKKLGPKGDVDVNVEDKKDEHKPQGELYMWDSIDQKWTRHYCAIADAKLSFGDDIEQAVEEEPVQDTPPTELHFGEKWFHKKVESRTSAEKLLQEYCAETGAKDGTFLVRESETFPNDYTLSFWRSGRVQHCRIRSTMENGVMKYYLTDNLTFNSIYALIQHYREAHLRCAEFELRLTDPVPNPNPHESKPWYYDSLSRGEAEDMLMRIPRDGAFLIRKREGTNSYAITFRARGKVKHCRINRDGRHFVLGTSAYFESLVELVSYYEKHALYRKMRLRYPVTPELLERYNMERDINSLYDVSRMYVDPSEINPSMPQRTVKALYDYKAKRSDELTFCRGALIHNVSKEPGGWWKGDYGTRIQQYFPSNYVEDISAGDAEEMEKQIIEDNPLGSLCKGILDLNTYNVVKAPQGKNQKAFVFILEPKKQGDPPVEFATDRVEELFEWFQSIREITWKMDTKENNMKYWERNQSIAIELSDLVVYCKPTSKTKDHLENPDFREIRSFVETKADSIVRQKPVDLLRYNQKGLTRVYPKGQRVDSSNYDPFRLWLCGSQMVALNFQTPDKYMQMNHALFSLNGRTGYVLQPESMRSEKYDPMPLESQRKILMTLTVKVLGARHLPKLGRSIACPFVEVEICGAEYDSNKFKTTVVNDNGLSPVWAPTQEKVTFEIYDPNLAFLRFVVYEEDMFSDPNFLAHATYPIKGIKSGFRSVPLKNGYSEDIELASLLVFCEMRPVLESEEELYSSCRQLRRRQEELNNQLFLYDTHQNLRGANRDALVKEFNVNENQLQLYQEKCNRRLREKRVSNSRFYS
Kind of data set: Inhibition of PLCgamma2 in ICR mouse bone marrow macrophages assessed as reduction in calcium influx at 10 uM after 3 days by Fluo-3/AM staining based confocal microscopic analysis.

The target of data set [28] is T1, 1-phosphatidylinositol 4,5-bisphosphate phosphodiesterase gamma-2 (Mus musculus). Description: Inhibition of PLCgamma2 phosphorylation in RANKL-induced ICR mouse bone marrow macrophages at 10 uM preincubated for 1 hr followed by RANKL-stimulation and measured after 5 to 30 mins by Western blot analysis.
For data set [29], the system named is BMDM. Kind of data set: Anti-osteoporosis activity in ICR mouse bone marrow macrophages assessed as inhibition of RANKL-induced OC-STAMP mRNA expression at 10 uM after 12 to 48 hrs by RT-PCR analysis. The format is functional.
Data set [30] has as its system BMDM. Description: Anti-osteoporosis activity in ICR mouse bone marrow macrophages assessed as inhibition of RANKL-induced NFATc1 mRNA expression at 10 uM after 12 to 48 hrs by RT-PCR analysis. Type of data set: functional, cell-based.

RAC-alpha serine/threonine-protein kinase (Mus musculus), sequence (P31750 whole entry): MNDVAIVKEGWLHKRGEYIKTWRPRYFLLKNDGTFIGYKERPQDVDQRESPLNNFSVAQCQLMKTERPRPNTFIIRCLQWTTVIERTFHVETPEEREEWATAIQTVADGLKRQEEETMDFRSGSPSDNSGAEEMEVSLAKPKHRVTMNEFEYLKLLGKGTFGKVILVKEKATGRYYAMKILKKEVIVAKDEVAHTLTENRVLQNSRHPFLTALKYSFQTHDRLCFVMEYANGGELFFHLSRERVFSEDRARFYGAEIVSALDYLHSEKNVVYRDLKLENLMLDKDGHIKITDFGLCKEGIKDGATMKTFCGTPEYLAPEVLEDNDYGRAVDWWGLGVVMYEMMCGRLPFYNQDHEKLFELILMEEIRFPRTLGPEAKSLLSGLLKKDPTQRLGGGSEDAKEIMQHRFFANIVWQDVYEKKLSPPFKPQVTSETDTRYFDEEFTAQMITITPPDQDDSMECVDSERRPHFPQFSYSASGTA

With `NC1(c2ccc(-c3nc4ccn5c(=O)[nH]nc5c4cc3-c3ccccc3)cc2)CCC1`, the inhibition entry (in data set [1]; in the data set with BMDM [2]; with BMDM [3]; with BMDM [4]) was “Active” throughout.

On to `C=C(C)[C@@H]1CC[C@]2(C(=O)O)CC[C@]3(C)[C@H](CC[C@@H]4[C@@]5(C)CC[C@H](O)C(C)(C)[C@@H]5CC[C@]43C)[C@@H]12` [BETULINIC ACID], for which the result with Mus musculus [5], with Mus musculus [14], in the data set on Mus musculus [19], in the data set with HEK-293T, in the data set with Mus musculus [24] and in the data set with Mus musculus [25] was Active. For the same molecule, the “fold change (FC)” value with BMDM [6], with BMDM [7], with BMDM [10], in the data set with BMDM [22], with BMDM [26] and in the data set with BMDM [29] was 2 - 4 each time. Besides, the inhibition entry (in the data set with Osteoclast [8]; with Mus musculus [9]; in the data set with Osteoclast [11]; in the data set with BMDM [13]; in data set [15]; with BMDM [16]) was “Active” each time. The inhibition result (in the data set on BMDM [18]; with BMDM [20]; in data set [23]; in data set [27]; in data set [28]; in the data set on BMDM [30]) was “Active” each time. Besides, in the data set on BMDM [12], the inhibition result is “Dose-dependent effect”. The Activity entry in the data set on BMDM [17] is reported as “Non-Toxic”. The inhibition entry in the data set with BMDM [21] was “inactive”.
